Source: patent US20130023485A1, “PARENTERAL FORMULATIONS OF PEPTIDES FOR THE TREATMENT OF SYSTEMATIC LUPUS ERYTHEMATOSUS” (Teva Pharmaceutical Industries, Ltd., priority 2003, published 2013)
Where two headings read alike, the source gives them in different places.

Experiments:
[1] = test system: antibodies in sera of SLE patients and healthy controls; assay: ELISA of sera for antibodies binding plate-coated peptides or mAb; set-up: species or system human; conditions: plates coated with 10 μg/ml; FIG. 7
Experimental: Human SLE patients (32 patients) were bled and their sera were tested by ELISA for their ability to bind the peptides Ia, IIa and 111a, a control peptide p195-212 (a myasthogenic peptide described in PCT publication No. WO 94/00148) or mAb 5G12.
Detection of the antibodies was conducted on plates that were coated with 10 μg/ml of peptides Ia, IIa, IIIa, p195-212 or mAb 5G12, in PBS for 2 hr, washed and blocked with 1% ovalbumin in PBS for an additional 2 hr. ELISA was continued as described after blockage in Example 2 of PCT International Publication No. 96/30057, using goat anti-human IgG polyclonal antibody conjugated to peroxidase.

PBL from SLE patients = assay: Proliferation of PBL in presence of mAb or peptides (3H-thymidine); assay type: cell-based, human
Experimental: (§1) Peripheral blood lymphocytes (PBL) were isolated from the blood of SLE patients or healthy controls using ficol gradient. Thereafter, the PBL were incubated in the presence of different concentrations of the peptides Ia, IIa or IIIa, or the human 16/6 Id mAb for 24 hr, when a sample was taken for IL-2 measurement. The assay was continued for a total of 7 days, and ^3H-thymidine was added for the last 16 hr. Proliferation was detected by reading the amount of radioactivity incorporated into the DNA of the cells.
(§2) As is seen in Table 14, a lower proportion of the PBL taken from SLE patients reacted to the peptides or to the 16/6 Id mAb, when compared to the healthy controls. The results are expressed in percentage of responder (34% in the first line) and the actual number of patients (11 out of 32: 11/32).

[2] = test system: PBL from healthy controls; assay: as above; assay type: cell-based, human
Experimental: as §1, §2

PBL of SLE patients = assay: Production of IL-2 by PBL in presence of mAb or peptides (CTLD cells); assay type: cell-based, human
Experimental: (§3) PBL were isolated from blood of SLE patients or healthy controls using ficol gradient, and were incubated as in Example 11. A sample of 50 μl was removed 24 hr after the assay was started, and incubated in the presence of IL-2 sensitive cells (CTLD) for 24 hr, after which ^3H-thymidine was added for 16 hr, and the plates were harvested and counted on a beta counter.

PBL of healthy controls = assay: as above; assay type: cell-based, human
Experimental: as §3

[3] = test system: PBL of SLE patients stimulated with human 16/6Id mAb; assay type: cell-based; conditions: for inhibition of proliferative responses to human 16/6Id mAb: PBL of one SLE patient; for Percent Inhibition of proliferation: highest positive inhibition, peptide 50 or 100 μg/well
Experimental: Cells were then harvested and radioactivity was counted using a β-counter. Results were expressed as mean counts per minute (cpm) of triplicate cultures. Stimulation indices (the ratio of mean cpm at the optimal concentration of 16/6Id to mean cpm without 16/6Id) were then calculated. A stimulation index (SI)≧2 was considered positive. […] Inhibition of above 50% of the proliferative capacity was considered positive. The Table represents the highest positive inhibition capacity for each peptide. […] Both peptides inhibited the proliferation of PBL of 18/19(95%) of responders tested. It can also be seen in the Table that the magnitudes of inhibitions were similar for both peptides. Thus, it can be concluded that peptides based on CDR1 and CDR3 of the human 16/6Id mAb are efficient inhibitors of the proliferation of PBL of SLE patients to the human 16/6Id mAb.

[4] = test system: PBL of SLE patients stimulated with phytohemagglutinin (PHA); assay: Proliferation of PBL stimulated with mitogen PHA; assay type: cell-based, human; conditions: PHA 2 μg/ml; PBL of one SLE patient, FIG. 9
Experimental: To this end the peptides hCDR1 or hCDR3 were added to cultures of PBL of SLE patients that were stimulated with the mitogen phytohemagglutinin (PHA, 2 μg/ml).

[5] = test system: IL-2 secretion by PBL of SLE patients; assay: Inhibition of IL-2 secretion by PBL stimulated with human 16/6Id mAb (CTLL line); assay type: cell-based
Experimental: It was of interest to find out whether the hCDR peptides are capable of inhibiting IL-2 secretion by PBL of SLE patients following stimulation with the human 16/6Id mAb. […] To this end, PBL of SLE patients were incubated with the human 16/6Id mAb in the absence or presence of the peptides hCDR1 or hCDR3. Supernatants of the cultures were collected following 48 hours of incubation. Assays to determine levels of IL-2 in the supernatants were performed using the CTLL IL-2 dependent line. Briefly, cells of the CTLL line (2×10^4/well) were incubated in the presence of the different supernatants for 24 hours, followed by the addition of ^3H-thymidine for an additional 18-hour incubation period. Cells were then harvested and radioactivity counted using a β-counter. Results were calculated based on recombinant human IL-2 used as a standard. The ability of the peptides to inhibit the IL-2 secretion of PBL of 23 responders stimulated by the human 16/6 Id was tested. […] Inhibition of proliferative responses of PBL directly correlated with IL-2 inhibition by the CDR-based peptides.

[6] = test system: TGF-β secretion by PBL of SLE patients; assay: Up-regulation of TGF-β secretion by PBL stimulated with human 16/6Id mAb (ELISA); assay type: cell-based
Experimental: For this purpose, supernatants were removed from cultures of PBL of various SLE patients following 48 hours incubation with the human 16/6Id mAb in the absence or presence of the peptides hCDR1 or hCDR3. TGF-β was determined by ELISA according to the manufacturer's instructions. Briefly, Maxisorb plates (Nunc) were coated with recombinant human TGFβsRII/Fc chimera (R & D Systems) diluted in PBS (100 ng/ml). After blocking, cell supernatants were added. After 18 hours incubation the detecting biotinylated anti-human TGF-β antibody (R & D Systems) was added. The substrate solution used was the TMB Colour Reagent (Helix Diagnostics) and enzyme activity was evaluated by the MRX ELISA reader using the 570 nm and 630 nm filters.

Substance: EINPSTGGTTYNQKFKAKAT (EINPSTGGTTYNQKFKAKAT) [pep IIa, based on CDR2 of the VH chain of mAb 5G12]
- levels of serum antibodies binding the coated antigen, SLE patients versus healthy controls [1]: significantly higher levels
- number of responders / tested (proliferation) (PBL from SLE patients): 3/32
- percentage of responders (proliferation) (PBL from SLE patients): 9%
- number of responders / tested (proliferation) [2]: 7/25
- percentage of responders (proliferation) [2]: 28%
- number of responders / tested (IL-2 production) (PBL of SLE patients): 3/32
- number of responders / tested (IL-2 production) (PBL of healthy controls): 8/25
- percentage of responders (IL-2 production) (PBL of healthy controls): 32%

Substance: TGYYMQWVKQSPEKSLEWIG [pep Ia]
- levels of serum antibodies binding the coated antigen, SLE patients versus healthy controls [1]: significantly higher levels
- number of responders / tested (proliferation) (PBL from SLE patients): 7/32
- percentage of responders (proliferation) (PBL from SLE patients): 21%
- number of responders / tested (proliferation) [2]: 11/25
- percentage of responders (proliferation) [2]: 44%
- number of responders / tested (IL-2 production) (PBL of SLE patients): 5/32
- percentage of responders (IL-2 production) (PBL of SLE patients): 16%
- number of responders / tested (IL-2 production) (PBL of healthy controls): 14/25
- percentage of responders (IL-2 production) (PBL of healthy controls): 56%

Substance: YYCARFLWEPYAMDYWGQGS (YYCARFLWEPYAMDYWGQGS) [pep IIIa, based on CDR3 of the VH chain of mAb 5G12]
- levels of serum antibodies binding the coated antigen, SLE patients versus healthy controls [1]: significantly higher levels
- number of responders / tested (proliferation) (PBL from SLE patients): 10/32
- percentage of responders (proliferation) (PBL from SLE patients): 31%
- number of responders / tested (proliferation) [2]: 15/25
- percentage of responders (proliferation) [2]: 60%
- number of responders / tested (IL-2 production) (PBL of SLE patients): 5/32
- percentage of responders (IL-2 production) (PBL of SLE patients): 16%
- number of responders / tested (IL-2 production) (PBL of healthy controls): 16/25
- percentage of responders (IL-2 production) (PBL of healthy controls): 64%
- inhibition of proliferative responses to human 16/6Id mAb ([3]; FIG. 10): did not inhibit

Substance: YYCARGLLRGGWNDVDYYGMDV [hCDR3, peptide based on CDR3 of the human 16/6Id mAb]
- inhibition of proliferative responses to human 16/6Id mAb ([3]; FIG. 10): inhibited efficiently
- inhibition of proliferative responses to human 16/6Id mAb ([3]; FIG. 11): did inhibit efficiently
- Percent Inhibition of proliferation ([3]; SLE patient Number 1): <50%
- Percent Inhibition of proliferation ([3]; SLE patient Number 2): 75%
- Percent Inhibition of proliferation ([3]; SLE patient Number 3): <50%
- Percent Inhibition of proliferation ([3]; SLE patient Number 4): <50%
- Percent Inhibition of proliferation ([3]; SLE patient Number 5): 87.5%
- Percent Inhibition of proliferation ([3]; SLE patient Number 6): 80%
- Percent Inhibition of proliferation ([3]; SLE patient Number 7): 70.4%
- Percent Inhibition of proliferation ([3]; SLE patient Number 8): 56%
- Percent Inhibition of proliferation ([3]; SLE patient Number 9): 65%
- Percent Inhibition of proliferation ([3]; SLE patient Number 10): 71.8%
- Percent Inhibition of proliferation ([3]; SLE patient Number 11): 72%
- Percent Inhibition of proliferation ([3]; SLE patient Number 12): 86%
- Percent Inhibition of proliferation ([3]; SLE patient Number 13): 64%
- Percent Inhibition of proliferation ([3]; SLE patient Number 14): 74%
- Percent Inhibition of proliferation ([3]; SLE patient Number 15): 69%
- Percent Inhibition of proliferation ([3]; SLE patient Number 16): 68%
- Percent Inhibition of proliferation ([3]; SLE patient Number 17): 77.8%
- Percent Inhibition of proliferation ([3]; SLE patient Number 18): <50%
- Percent Inhibition of proliferation ([3]; SLE patient Number 19): 60.8%
- responders whose PBL proliferation was inhibited (above 50%) ([3]; of the 19 responders tested): 78.9%
- Percent Inhibition of proliferation, Mean ± SD ([3]; over patients with positive inhibition (above 50%)): 71.82 ± 8.44%
- inhibition of proliferative responses to mitogen PHA [4]: could not inhibit
- patients whose PBL IL-2 secretion was inhibited / tested ([5]; 23 responders): 19/23
- Maximum inhibition % ([5]; IL-2 secretion with 16/6 Id alone = 100%): 78 ± 34%
- Inhibitory Activity* % (patients with inhibition of 50% or more) ([5]; PBL of 23 responders): 83 (19/23) %
- inhibition of IL-2 secretion ([5]; PBL of one SLE patient, FIG. 12): 100%
- Up-Regulation of TGF-β % (patients) ([6]; PBL of SLE patients, 48 hours): 100 (19/19) %
- secretion of TGF-β ([6]; PBL of one representative SLE patient, FIG. 13): significant up-regulation
- Maximum Up-regulation % ([6]; percent secretion above that in the presence of 16/6 Id alone (= 100%)): 338 ± 242%
